Measurements as given in patent US4420643A, “Extraction of phenols from aqueous solutions” (priority 1982, dated 1983).

Columns and labels:
[1] = Extraction of phenol from 1% aqueous solution with high boiling solvents alone and with TOPO (Example 3, Table III); assay type: physicochemical; settings: 24° C., 10 minutes
Experimental: A number of high boiling solvents, which would allow recovery of the extracted phenol without the necessity of distilling the solvent, were evaluted and the distribution coefficient calculated for the solvent alone and containing 133 g/l of TOPO. The aqueous solution extracted contained 1% phenol, which was contacted with the solvent or solvent plus TOPO for 10 minutes at 24° C.

[2] = Water solubility of the solvents
[3] = Concentration of TOPO obtainable in the extraction solution; assay type: physicochemical
Source text: It is advantageous in solvent extraction to maximize the loading of the extracted compound in the organic phase. This also permits a higher ratio of aqueous phase to organic phase (A/O) in the extraction process, that is, a greater volume of aqueous solution treated per volume of organic extractant. It is therefore desirable to maximize the concentration of phosphine oxide in the extraction solution. With TOPO, solutions containing in excess of 30% by weight are readily obtained.

[4] = solvent + TOPO 133 g/l (head: TOPA), A/O = 0.5
[5] = solvent + TOPO 133 g/l, A/O = 1

TOPO concentration of solutions readily obtained [3] [% by weight] | Molecule | C aq. Final (phenol) ([1]; solvent alone, A/O = 1) [ppm] | C aq. Final (phenol) [1, 4] [ppm] | C aq. Final (phenol) [1, 5] [ppm] | water solubility [2]
– | CC(C)OC(C)C [Diisopropyl ether, diisopropyl ether, reference compound] | 419 | – | – | –
– | O=C(c1ccccc1)c1ccccc1 [Benzophenone] | – | 37 | 85 | –
– | Diisopropyl naphthalene | 5590 | 18 | 46 | negligible water solubility
– | c1ccc(Oc2ccccc2)cc1 [Diphenyl ether] | 3075 | 23 | 55 | –
– | Isopropyl naphthalene | 4690 | 18 | 45 | negligible water solubility
– | CC(C)CC(=O)CC(C)C [DIBK, diisobutylketone, reference compound] | 285 | 26 | 60 | –
> 30 | CCCCCCCCP(=O)(CCCCCCCC)CCCCCCCC [TOPO, tri-n-octylphosphine oxide] | – | – | – | –
– | CC(=O)CC(C)C [Methyl isobutyl ketone, reference compound] | 130 | 24 | 43 | –
– | c1ccc(Cc2ccccc2)cc1 [Diphenyl methane] | – | 21 | 59 | –
– | CCCCCCCCCCCCCO [Tridecanol] | 531 | 128 | 515 | –
